Assay results taken from ChEMBL document CHEMBL5291721, “A preclinical secondary pharmacology resource illuminates target-adverse drug reaction associations of marketed drugs” (Nat Commun, 2023).

Tests used:
[1] = target: Sodium-dependent noradrenaline transporter (Homo sapiens, UniProt P23975)
[2] = target: Mu-type opioid receptor (Homo sapiens, UniProt P35372)
[3] = target: Prostaglandin G/H synthase 1 (Homo sapiens, UniProt P23219); type: functional
[4] = target: T1, Progesterone receptor (Homo sapiens, UniProt P06401)
T1 sequence (P06401 whole entry): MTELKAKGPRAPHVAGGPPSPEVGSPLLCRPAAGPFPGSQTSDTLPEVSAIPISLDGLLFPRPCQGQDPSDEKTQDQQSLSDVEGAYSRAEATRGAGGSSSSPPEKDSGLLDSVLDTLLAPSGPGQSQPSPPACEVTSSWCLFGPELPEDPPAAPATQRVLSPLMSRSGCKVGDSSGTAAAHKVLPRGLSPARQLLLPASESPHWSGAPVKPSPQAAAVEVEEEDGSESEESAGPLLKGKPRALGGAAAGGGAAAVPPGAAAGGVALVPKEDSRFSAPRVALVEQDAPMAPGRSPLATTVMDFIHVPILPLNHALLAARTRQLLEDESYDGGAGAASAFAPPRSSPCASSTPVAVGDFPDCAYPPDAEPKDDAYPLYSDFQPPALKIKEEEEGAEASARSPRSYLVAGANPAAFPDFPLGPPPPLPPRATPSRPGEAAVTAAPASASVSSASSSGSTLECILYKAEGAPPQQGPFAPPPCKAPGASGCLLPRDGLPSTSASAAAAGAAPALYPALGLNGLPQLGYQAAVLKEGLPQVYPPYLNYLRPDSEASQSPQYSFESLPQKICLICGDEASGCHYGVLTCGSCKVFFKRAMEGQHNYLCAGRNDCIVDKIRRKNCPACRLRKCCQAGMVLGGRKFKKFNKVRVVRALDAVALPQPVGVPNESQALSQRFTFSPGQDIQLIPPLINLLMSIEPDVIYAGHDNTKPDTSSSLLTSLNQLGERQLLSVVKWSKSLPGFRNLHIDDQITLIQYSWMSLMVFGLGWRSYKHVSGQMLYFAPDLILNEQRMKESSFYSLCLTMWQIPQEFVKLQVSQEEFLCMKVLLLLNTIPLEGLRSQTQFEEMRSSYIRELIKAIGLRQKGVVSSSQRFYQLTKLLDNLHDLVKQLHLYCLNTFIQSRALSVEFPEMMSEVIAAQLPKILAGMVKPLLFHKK

[5] = target: T2, Adenosine receptor A3 (Homo sapiens, UniProt P0DMS8)
T2 sequence (P0DMS8 whole entry): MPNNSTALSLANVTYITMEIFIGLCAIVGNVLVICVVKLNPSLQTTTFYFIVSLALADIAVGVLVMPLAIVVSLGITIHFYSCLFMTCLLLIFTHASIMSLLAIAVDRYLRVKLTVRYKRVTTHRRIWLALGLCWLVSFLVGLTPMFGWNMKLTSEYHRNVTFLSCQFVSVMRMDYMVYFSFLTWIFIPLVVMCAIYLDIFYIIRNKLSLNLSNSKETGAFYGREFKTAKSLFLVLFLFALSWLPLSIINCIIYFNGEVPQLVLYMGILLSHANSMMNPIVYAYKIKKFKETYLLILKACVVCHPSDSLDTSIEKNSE

[6] = target: Histamine H3 receptor (Homo sapiens, UniProt Q9Y5N1)
Chain of Histamine H3 receptor (Q9Y5N1 whole entry): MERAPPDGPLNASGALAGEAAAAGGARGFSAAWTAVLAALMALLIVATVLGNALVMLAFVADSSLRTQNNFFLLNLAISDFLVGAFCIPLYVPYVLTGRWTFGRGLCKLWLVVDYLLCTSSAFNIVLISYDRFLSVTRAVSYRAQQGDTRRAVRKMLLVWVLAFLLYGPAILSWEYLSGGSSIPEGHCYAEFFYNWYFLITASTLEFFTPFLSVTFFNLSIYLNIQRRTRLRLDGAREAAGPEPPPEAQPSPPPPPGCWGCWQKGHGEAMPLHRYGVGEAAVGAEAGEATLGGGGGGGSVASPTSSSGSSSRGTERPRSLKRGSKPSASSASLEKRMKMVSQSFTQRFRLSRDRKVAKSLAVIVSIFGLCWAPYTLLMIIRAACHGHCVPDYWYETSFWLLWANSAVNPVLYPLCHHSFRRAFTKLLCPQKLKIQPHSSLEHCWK

[7] = target: Prothrombin (Homo sapiens, UniProt P00734); type: functional
[8] = target: T3, Alpha-1A adrenergic receptor (Homo sapiens, UniProt P35348); type: functional, cell-based
T3 sequence (P35348 whole entry): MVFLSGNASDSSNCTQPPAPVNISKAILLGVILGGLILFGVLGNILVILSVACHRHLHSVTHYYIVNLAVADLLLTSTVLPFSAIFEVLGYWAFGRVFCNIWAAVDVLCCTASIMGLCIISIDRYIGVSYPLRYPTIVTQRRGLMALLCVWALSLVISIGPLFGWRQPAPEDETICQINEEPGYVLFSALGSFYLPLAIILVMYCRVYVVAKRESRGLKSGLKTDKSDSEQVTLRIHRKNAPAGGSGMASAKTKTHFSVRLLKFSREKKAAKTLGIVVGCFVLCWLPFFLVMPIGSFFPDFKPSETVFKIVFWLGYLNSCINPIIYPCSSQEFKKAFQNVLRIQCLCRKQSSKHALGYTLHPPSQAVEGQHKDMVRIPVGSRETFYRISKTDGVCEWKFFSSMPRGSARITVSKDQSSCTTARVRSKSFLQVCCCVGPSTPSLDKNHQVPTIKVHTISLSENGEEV

[9] = target: T4, Thromboxane A2 receptor (Homo sapiens, UniProt P21731); type: functional, cell-based
T4 sequence (P21731 whole entry): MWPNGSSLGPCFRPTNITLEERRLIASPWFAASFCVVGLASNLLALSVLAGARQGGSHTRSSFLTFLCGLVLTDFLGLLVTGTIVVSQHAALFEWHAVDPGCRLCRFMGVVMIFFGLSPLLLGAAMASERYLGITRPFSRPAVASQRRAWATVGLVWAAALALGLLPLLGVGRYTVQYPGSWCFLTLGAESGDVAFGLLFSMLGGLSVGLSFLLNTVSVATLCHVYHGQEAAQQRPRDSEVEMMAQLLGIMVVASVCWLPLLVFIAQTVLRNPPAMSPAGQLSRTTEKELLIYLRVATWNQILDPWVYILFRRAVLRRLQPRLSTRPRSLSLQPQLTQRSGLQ

[10] = target: T5, Muscarinic acetylcholine receptor M1 (Homo sapiens, UniProt P11229); type: functional, cell-based
T5 sequence (P11229 whole entry): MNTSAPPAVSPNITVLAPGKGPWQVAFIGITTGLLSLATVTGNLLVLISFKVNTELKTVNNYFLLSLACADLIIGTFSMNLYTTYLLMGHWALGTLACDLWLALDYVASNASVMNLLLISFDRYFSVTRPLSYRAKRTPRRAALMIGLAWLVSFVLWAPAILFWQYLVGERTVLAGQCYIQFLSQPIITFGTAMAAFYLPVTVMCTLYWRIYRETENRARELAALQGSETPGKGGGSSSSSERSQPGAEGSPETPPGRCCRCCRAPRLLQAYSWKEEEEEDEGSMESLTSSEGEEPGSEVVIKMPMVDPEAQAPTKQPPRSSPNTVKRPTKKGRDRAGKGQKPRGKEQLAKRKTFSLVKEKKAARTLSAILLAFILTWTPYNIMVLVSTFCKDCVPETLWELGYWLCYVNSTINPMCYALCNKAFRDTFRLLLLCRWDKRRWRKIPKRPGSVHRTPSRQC

[11] = target: D(1A) dopamine receptor (Homo sapiens, UniProt P21728)
Chain of D(1A) dopamine receptor (P21728 whole entry): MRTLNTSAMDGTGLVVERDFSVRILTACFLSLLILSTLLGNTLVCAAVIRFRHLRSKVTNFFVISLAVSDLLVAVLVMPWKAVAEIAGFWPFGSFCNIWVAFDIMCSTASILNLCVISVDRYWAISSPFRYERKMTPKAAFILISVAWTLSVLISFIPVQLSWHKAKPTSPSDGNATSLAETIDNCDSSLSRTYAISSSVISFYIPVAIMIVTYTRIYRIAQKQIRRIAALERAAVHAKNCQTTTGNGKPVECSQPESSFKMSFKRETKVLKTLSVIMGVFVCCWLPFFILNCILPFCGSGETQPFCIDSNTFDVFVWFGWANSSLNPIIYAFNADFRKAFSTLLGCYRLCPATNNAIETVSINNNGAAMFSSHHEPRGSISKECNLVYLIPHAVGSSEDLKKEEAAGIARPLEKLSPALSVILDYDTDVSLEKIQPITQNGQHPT

[12] = target: Acetylcholinesterase (Homo sapiens, UniProt P22303); type: functional
Chain of Acetylcholinesterase (P22303 whole entry): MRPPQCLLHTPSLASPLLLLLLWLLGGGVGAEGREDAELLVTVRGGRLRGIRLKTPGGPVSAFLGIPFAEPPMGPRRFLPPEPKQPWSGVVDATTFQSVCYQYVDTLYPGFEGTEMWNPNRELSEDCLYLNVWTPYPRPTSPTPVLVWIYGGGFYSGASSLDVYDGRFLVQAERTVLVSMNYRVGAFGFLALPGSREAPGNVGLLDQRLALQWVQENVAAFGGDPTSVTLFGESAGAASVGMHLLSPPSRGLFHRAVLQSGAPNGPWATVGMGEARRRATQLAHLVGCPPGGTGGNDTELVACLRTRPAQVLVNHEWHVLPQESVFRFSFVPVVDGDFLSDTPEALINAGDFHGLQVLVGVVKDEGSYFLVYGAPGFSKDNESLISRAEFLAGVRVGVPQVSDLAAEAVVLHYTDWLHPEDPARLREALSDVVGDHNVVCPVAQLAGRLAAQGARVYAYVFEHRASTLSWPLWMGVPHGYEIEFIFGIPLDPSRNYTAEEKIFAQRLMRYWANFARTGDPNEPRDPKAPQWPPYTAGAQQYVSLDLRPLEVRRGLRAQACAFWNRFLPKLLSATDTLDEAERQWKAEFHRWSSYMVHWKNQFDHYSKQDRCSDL
Note: assay procedure not described here.

Chain of Mu-type opioid receptor (P35372 whole entry): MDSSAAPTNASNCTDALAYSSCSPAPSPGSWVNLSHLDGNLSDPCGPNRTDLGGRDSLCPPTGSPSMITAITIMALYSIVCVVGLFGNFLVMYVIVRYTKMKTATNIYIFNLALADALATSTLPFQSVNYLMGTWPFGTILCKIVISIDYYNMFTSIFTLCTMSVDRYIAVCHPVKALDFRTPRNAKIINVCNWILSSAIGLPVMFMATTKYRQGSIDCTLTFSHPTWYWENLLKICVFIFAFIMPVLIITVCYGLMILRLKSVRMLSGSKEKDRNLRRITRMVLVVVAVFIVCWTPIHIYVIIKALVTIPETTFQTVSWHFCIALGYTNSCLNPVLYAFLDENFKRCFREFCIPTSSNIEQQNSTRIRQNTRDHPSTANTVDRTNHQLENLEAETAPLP
Chain of Sodium-dependent noradrenaline transporter (P23975 whole entry): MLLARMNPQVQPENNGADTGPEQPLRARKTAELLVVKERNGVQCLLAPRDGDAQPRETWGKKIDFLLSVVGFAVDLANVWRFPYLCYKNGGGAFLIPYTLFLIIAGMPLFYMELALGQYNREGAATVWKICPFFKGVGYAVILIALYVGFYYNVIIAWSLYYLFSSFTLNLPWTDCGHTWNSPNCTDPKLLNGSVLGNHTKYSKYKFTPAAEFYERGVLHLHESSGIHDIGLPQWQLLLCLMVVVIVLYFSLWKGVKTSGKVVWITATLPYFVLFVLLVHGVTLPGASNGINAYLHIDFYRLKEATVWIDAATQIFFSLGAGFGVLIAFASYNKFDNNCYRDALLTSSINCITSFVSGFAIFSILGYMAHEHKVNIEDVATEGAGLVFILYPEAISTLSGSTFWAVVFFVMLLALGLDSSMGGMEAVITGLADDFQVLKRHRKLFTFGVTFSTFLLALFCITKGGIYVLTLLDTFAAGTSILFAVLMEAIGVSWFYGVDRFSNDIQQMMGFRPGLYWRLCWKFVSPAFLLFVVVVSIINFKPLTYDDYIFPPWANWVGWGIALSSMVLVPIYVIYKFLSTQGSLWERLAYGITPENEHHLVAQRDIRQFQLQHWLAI
Chain of Prostaglandin G/H synthase 1 (P23219 whole entry): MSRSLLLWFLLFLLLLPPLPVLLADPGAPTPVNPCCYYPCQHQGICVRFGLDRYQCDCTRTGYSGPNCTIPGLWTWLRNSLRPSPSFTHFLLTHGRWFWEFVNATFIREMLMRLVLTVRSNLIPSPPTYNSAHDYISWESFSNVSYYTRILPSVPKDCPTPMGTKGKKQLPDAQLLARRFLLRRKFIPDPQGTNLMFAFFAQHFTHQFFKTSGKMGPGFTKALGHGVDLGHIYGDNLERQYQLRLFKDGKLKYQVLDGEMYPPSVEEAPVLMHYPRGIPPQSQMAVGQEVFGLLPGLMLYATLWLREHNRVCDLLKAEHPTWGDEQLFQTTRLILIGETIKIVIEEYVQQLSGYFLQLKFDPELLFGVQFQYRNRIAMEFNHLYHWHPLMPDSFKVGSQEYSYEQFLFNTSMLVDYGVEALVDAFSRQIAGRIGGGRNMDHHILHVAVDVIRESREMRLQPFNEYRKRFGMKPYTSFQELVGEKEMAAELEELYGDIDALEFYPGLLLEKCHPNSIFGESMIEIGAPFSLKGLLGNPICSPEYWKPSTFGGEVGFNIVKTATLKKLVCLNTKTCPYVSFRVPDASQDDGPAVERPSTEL

| SMILES | AC50 [1] | AC50 [2] | AC50 [3] | AC50 [4] | AC50 [5] | AC50 [6] | AC50 [7] | AC50 [8] | AC50 [9] | AC50 [10] | AC50 [11] | AC50 [12] |
| --- | --- | --- | --- | --- | --- | --- | --- | --- | --- | --- | --- | --- |
| CC(=O)c1ccc2c(c1)N(CCCN(C)C)c1ccccc1S2 [ACEPROMAZINE] | 0.161 µM | 2.42 µM | > 30 µM | > 30 µM | > 30 µM | > 30 µM | > 30 µM | > 30 µM | > 30 µM | 0.151 µM | 0.0259 µM | > 30 µM |
| CN1CCN(C2=Nc3ccccc3Sc3ccc(Cl)cc32)CC1 [CLOTHIAPINE] | 0.76 µM | 1.1 µM | > 30 µM | > 30 µM |  | > 30 µM | > 30 µM | > 10 µM | > 10 µM | 0.42 µM | 0.0061 µM | > 30 µM |
| NNc1nnc(NN)c2ccccc12 [DIHYDRALAZINE] | > 30 µM | 25.6 µM | 0.434 µM |  | 0.197 µM | > 30 µM | > 30 µM | > 30 µM | > 30 µM | > 30 µM | > 30 µM | > 30 µM |
| O=[N+]([O-])O[C@@H]1CO[C@H]2[C@@H]1OC[C@@H]2O [ISOSORBIDE MONONITRATE] | > 30 µM | > 30 µM | > 30 µM | > 30 µM |  | > 30 µM | > 30 µM | > 30 µM | > 30 µM | > 30 µM | > 30 µM | > 30 µM |
| COc1ccc2c(c1)N(C[C@H](C)CN(C)C)c1ccccc1S2 [LEVOMEPROMAZINE] | > 30 µM | 13.5 µM | > 30 µM | > 30 µM | > 30 µM | > 30 µM | > 30 µM |  | > 30 µM | 0.331 µM |  | > 30 µM |
| CCCCCNC(=N)N/N=C/c1c[nH]c2ccc(OC)cc12 [TEGASEROD] | 0.26 µM | 2.32 µM | 2.65 µM | > 30 µM |  | > 30 µM | > 30 µM | > 3 µM | > 3 µM | > 3 µM | 0.73 µM | > 30 µM |
| CCCCS(=O)(=O)N[C@@H](Cc1ccc(OCCCCC2CCNCC2)cc1)C(=O)O [TIROFIBAN] | > 30 µM | > 30 µM | > 30 µM | > 30 µM |  | > 30 µM | > 30 µM | > 30 µM | > 30 µM | > 10 µM | > 30 µM | > 30 µM |
| COC1=C(OC)C(=O)C(C/C=C(\C)CC/C=C(\C)CC/C=C(\C)CC/C=C(\C)CC/C=C(\C)CC/C=C(\C)CC/C=C(\C)CC/C=C(\C)CC/C=C(\C)CCC=C(C)C)=C(C)C1=O [UBIDECARENONE] | > 30 µM | > 30 µM | > 30 µM | > 30 µM |  | > 30 µM | > 30 µM | > 30 µM | > 30 µM | > 30 µM | > 30 µM | > 30 µM |
